Experimental data as given in patent US20220073496A1, “NOVEL QUINOLINE DERIVATIVE INHIBITOR” (Nanjing Transthera Biosciences Co., Ltd., priority 2018, published 2022).

Legend:
Format in all cases: biochemical
Details in all cases: 10 μM [γ-33P]-ATP, 40 minutes, room temperature
Axl (h) = biological target: T1, Axl (h) (Homo sapiens, UniProt P30530); assay: Enzymatic activity test, Axl (h)
T1 construct: purchased
T1 sequence (P30530 26-894): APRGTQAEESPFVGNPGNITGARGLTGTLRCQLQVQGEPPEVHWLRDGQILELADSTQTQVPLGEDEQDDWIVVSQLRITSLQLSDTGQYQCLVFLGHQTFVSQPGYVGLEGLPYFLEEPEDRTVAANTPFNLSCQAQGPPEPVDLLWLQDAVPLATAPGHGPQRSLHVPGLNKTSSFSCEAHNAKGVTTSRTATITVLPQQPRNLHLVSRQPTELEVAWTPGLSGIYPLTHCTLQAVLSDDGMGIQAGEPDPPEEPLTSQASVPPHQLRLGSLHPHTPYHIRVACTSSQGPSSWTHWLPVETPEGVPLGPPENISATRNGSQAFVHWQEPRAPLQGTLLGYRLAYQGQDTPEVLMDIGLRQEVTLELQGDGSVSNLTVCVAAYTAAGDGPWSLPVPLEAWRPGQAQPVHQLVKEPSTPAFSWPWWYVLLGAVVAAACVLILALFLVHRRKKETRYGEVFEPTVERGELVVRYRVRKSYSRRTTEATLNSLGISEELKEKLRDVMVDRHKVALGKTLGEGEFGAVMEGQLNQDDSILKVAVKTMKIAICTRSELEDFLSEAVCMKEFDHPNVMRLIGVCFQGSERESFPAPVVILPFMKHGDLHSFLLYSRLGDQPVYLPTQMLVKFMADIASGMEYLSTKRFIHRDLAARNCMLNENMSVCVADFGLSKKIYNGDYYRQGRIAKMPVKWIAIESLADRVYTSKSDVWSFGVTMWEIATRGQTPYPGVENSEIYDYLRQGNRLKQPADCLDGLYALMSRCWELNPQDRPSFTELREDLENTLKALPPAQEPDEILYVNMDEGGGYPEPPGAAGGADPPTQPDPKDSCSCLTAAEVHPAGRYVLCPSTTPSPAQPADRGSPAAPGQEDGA
Experimental: Assay 3: Enzymatic Activity Test of the Compounds of the Present Invention
(§1) Test substances: the compounds of the present invention, wherein the structures and preparations thereof were as described above.
(1) Preparation of the Compound Stock Solution
(§2) The compound was dissolved in 100% DMSO to prepare a stock solution with a maximum concentration of 500 μM.
(2) Preparation of the Compound Working Solution
The compound stock solution was diluted to final concentrations of 500, 150, 50, 15, 5, 1.5, 0.5, 0.15 and 0.05 μM to become the compound working solutions (50×).
(3) Preparation of Different Enzyme Reaction Solutions
The Axl (h) enzyme was dissolved in 8 mM MOPS (pH 7.0), 0.2 mM EDTA, and 250 μM KKSRGDYMTMQIG to prepare an enzyme solution having a final concentration of 1.7 nM. The enzymatic reaction was activated by using 10 mM magnesium acetate and 10 μM [γ-^33P]-ATP to form an Mg/ATP mixed solution.
(§3) In a 384-well plate, the compound working solution was added to final concentrations of 10000, 3000, 1000, 300, 100, 30, 10, 3, and 1 nM. Then different enzyme reaction solutions prepared according to the above conditions were added. The incubation was carried out for 40 minutes at room temperature. The test was terminated by the addition of a 0.5% phosphoric acid solution. 10 μL of the reaction solution was taken and dropped to the P30 filter paper. The filter paper was washed 4 times with 0.425% phosphoric acid solution and once with methanol, and then placed on a scintillation counter. The […] IC50 values were calculated using GraphPad 5.0 software.

TrkC (h) = biological target: T2, TrkC (h) (Homo sapiens, UniProt Q16288); assay: Enzymatic activity test, TrkC (h)
T2 construct: purchased
T2 sequence (Q16288 32-839): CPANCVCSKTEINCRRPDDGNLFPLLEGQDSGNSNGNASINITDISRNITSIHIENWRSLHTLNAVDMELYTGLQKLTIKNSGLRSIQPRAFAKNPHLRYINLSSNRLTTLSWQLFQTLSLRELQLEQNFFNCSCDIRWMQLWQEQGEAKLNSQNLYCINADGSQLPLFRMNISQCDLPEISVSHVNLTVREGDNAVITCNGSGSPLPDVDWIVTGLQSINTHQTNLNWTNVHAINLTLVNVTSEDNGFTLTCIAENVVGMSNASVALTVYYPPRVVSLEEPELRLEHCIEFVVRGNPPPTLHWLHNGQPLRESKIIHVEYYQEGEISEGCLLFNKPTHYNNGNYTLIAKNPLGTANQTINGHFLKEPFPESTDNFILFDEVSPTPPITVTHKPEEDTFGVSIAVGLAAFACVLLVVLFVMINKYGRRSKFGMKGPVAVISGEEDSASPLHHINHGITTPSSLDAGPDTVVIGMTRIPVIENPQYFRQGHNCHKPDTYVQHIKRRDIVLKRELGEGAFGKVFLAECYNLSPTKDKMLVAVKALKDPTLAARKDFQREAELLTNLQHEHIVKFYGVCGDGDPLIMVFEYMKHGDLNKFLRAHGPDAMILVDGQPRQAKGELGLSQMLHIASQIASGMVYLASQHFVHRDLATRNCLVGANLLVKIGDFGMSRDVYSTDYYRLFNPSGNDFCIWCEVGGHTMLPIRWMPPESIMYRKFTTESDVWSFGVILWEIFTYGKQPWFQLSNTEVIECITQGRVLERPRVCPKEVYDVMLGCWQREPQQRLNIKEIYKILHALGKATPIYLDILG
Experimental: (§4) Assay 4: Enzymatic Activity Test of the Compound of the Present Invention
as §1
(§5) Preparation of the Compound Stock Solution
as §2
(§6) Preparation of the Compound Working Solution
(§7) The compound stock solution was diluted to final concentrations of 500, 150, 50, 15. 5, 1.5, 0.5, 0.15 and 0.05 μM to become the compound working solutions (50×).
(§8) Preparation of Different Enzyme Reaction Solutions
The TrkC (h) enzyme was dissolved in 8 mM MOPS (pH 7.0), 0.2 mM EDTA, and 500 μM GEEPLYWSFPAKKK to prepare an enzyme solution having a final concentration of 38 nM. The enzymatic reaction was activated by using 10 mM magnesium acetate and 10 μM [γ-^33P]-ATP to form an Mg/ATP mixed solution.
as §3

TrkB (h) = biological target: T3, TrkB (h) (Homo sapiens, UniProt Q16620); assay: Enzymatic activity test, TrkB (h)
T3 construct: purchased
T3 sequence (Q16620 32-822): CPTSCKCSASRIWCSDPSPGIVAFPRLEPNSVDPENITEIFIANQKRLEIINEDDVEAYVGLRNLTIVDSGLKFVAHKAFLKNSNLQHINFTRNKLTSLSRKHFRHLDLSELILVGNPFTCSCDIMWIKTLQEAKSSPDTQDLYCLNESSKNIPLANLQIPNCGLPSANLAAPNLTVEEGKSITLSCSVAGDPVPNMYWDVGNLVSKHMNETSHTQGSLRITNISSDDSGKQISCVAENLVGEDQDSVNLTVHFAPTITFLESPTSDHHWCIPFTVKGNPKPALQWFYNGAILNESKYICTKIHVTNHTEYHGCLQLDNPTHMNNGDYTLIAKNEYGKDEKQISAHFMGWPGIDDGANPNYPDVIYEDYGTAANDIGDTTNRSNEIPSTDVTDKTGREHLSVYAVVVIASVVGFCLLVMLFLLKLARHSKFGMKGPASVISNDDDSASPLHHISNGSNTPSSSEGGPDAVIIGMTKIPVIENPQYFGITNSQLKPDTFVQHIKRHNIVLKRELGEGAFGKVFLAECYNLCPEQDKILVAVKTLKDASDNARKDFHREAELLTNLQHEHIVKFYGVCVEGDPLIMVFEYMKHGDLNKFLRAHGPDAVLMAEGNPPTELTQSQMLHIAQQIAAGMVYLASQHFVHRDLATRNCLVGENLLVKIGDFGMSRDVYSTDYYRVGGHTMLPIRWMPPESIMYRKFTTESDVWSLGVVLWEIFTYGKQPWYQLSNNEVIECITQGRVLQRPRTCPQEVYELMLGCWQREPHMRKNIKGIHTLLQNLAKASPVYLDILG
Experimental: as §4, §1, §5, §2, §6, §7, §8
The TrkB (h) enzyme was dissolved in 8 mM MOPS (pH 7.0), 0.2 mM EDTA, and 0.1 mg/mL poly(Glu, Tyr) 4:1 to prepare an enzyme solution having a final concentration of 3.1 nM. The enzymatic reaction was activated by using 10 mM magnesium acetate and 10 μM [γ-^33P]-ATP to form an Mg/ATP mixed solution,
as §3

SMILES | IC50 (Axl (h)) [nM] | IC50 (TrkC (h)) [nM] | IC50 (TrkB (h)) [nM]
COc1cc2nccc(Oc3ccc(NC(=O)c4cn(C(C)C)cc(-c5ccc(C)cc5)c4=O)nc3)c2cc1OC [Compound 1, N-(5-((6,7-dimethoxyquinolin-4-yl)oxy)pyridin-2-yl)-1-isopropyl-4-oxo-5-p-tolyl-1,4-dihydropyridin-3-carboxamide] | 17 | – | –
COc1cc2nccc(Oc3ccc(NC(=O)c4cn(C(C)C)cc(-c5ccc(F)cc5)c4=O)nc3)c2cc1OC [Compound 14, N-(5-((6,7-dimethoxyquinolin-4-yl)oxy)pyridin-2-yl)-5-(4-fluorophenyl)-1-isopropyl-4-oxo-1,4-dihydropyridin-3-carboxamide] | 8 | – | –
COc1cc2nccc(Oc3cnc(NC(=O)c4nn(C(C)C)cc(-c5ccc(F)cc5)c4=O)nc3)c2cc1OC [Compound 16, N-(5-((6,7-dimethoxyquinolin-4-yl)oxy)pyrimidine-2-yl)-5-(4-fluorophenyl)-1-isopropyl-4-oxo-1,4-dihydropyridazine-3-carboxamide] | 13 | – | –
COc1cc2nccc(Oc3cnc(NC(=O)c4cn(C(C)C)cc(-c5ccc(F)cc5)c4=O)nc3)c2cc1OC [Compound 20, N-(5-((6,7-dimethoxyquinolin-4-y)oxy)pyrimidine-2-yl)-5-(4-fluorophenyl)-1-isopropyl-4-oxo-1,4-dihydropyridin-3-carboxamide] | 17 | – | –
COc1cc2nccc(Oc3ccc(NC(=O)c4nn(C(C)C)cc(-c5ccc(F)cc5)c4=O)cn3)c2cc1OC [Compound 29, N-(6-((6,7-dimethoxyquinolin-4-yl)oxy)pyridin-3-yl)-1-isopropyl-4-oxo-5-para-fluorophenyl-1,4-dihydropyridazine-3-carboxamide] | 5 | – | –
COc1cc2nccc(Oc3ccc(NC(=O)c4cn(C5CC5)cc(-c5ccc(F)cc5)c4=O)nc3)c2cc1OC [Compound 30, N-(5-((6,7-dimethoxyquinolin-4-yl)oxy)pyridin-2-yl)-1-cyclopropyl-4-oxo-5-para-fluorophenyl-1,4-hydropyridin-3-carboxamide] | 7 | – | –
COc1cc2nccc(Oc3cnc(NC(=O)c4cn(C5CC5)cc(-c5ccc(F)cc5)c4=O)nc3)c2cc1OC [Compound 32, 1-cyclopropyl-N-(5-((6,7-dimethoxyquinolin-4-yl)oxy)pyrimidine-2-yl)-5-(4-fluorophenyl)-4-oxo-1,4-dihydropyridin-3-carboxamide] | 5 | – | –
COc1cc2nccc(Oc3ccc(NC(=O)c4nn(C5CC5)cc(-c5ccc(F)cc5)c4=O)cn3)c2cc1OC [Compound 36] | 3 | 3 | 4
COc1cc2nccc(Oc3ncc(NC(=O)c4nn(C5CC5)cc(-c5ccc(F)cc5)c4=O)cn3)c2cc1OC [Compound 37, 1-cyclopropyl-N-(2-((6,7-dimethoxyquinolin-4-yl)oxy)pyrimidine-5-yl)-5-para-fluorophenyl-4-oxo-1,4-dihydropyridazine-3-carboxamide] | 2 | 4 | 6
COc1cc2nccc(Oc3ccc(NC(=O)c4cn(C(C)C)nc(-c5ccc(F)cc5)c4=O)nc3)c2cc1OC [Compound 41, N-(5-((6,7-dimethoxyquinolin-4-yl)oxy)pyridin-2-yl)-6-(4-fluorophenyl)-2-isopropyl-5-oxo-2,5-dihydropyridazine-4-carboxamide] | 12 | – | –
